Tests used:
[1] = disulfide exchange with plasma thiols in the presence of air; assay type: physicochemical
Protocol: (§1) Oxytocin and vasopressin undergo disulfide exchange with abundant thiol containing compounds under aerobic conditions like those found in blood plasma. […] If albumin (1 mM) is added to that mixture all detectable oxytocin and vasopressin sequester with albumin upon acetone precipitation. Oxytocin immunoreactivity in plasma is associated with high molecular weight species (Szeto et al). When beta-mercaptoethanol (1 M) and histamine (30 mM) are added to plasma, oxytocin and vasopressin in the 1-100 nM range were recovered rather than the 1-100 pM range recovered without thiols or reported routinely with existing commercially available immunoreactivity tests. The mid nanomolar range is much more consistent with the concentrations required in biological assays for these compounds, such as inducing the lactation reflect with rabbit mammary tissue. Nanomolar concentrations for oxytocin and vasopressin are also far more consistent with the doses required for either peptide in intervention regimes.
Incubating oxytocin and vasopressin them with glutathione at its plasma concentration in the presence of air (as in blood) induces oxytocin and vasopressin to disulfide exchange with glutathione and undergo additional oxidation resulting in the accumulation of diglutathione adducts (FIGS. 4A-C). This additional oxidation-containing product accumulates even in the presence of a vast excess of reducing equivalents in the form of remaining excess reduced glutathione. The introduction of air lead to a disulfide exchange result distinct from that observed in the published literature. The disulfide exchange is inhibited by EDTA which is added to most blood as a preservative. In the body the hormones undergo exchange, but in collected blood the EDTA will inhibit diglutathione formation unless the redox state of the collected blood is perturbed, as FIG. 5.

[2] = molecular target: albumin (Homo sapiens, UniProt P02768); assay: incubation with free thiol containing albumin, acetone precipitation; assay type: in vitro ADME
albumin, sequence (P02768 25-609, species assumed): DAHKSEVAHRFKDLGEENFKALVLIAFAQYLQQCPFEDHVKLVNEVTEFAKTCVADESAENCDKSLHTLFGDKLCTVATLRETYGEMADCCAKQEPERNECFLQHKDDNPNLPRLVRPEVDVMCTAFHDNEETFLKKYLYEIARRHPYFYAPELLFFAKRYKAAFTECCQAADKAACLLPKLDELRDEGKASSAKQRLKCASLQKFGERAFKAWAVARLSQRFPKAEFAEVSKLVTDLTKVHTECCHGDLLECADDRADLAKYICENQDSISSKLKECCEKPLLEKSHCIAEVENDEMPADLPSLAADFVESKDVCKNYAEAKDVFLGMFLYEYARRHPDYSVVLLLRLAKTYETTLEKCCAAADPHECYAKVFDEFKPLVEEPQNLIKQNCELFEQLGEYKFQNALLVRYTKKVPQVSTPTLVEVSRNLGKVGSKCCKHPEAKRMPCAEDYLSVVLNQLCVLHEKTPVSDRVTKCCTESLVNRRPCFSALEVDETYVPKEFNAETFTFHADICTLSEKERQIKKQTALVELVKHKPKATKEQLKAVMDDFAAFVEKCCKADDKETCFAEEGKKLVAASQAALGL
Protocol: as §1
Acetone extraction of the incubation clears oxytocin and vasopressin from the solution into the pellet with the albumin. In one embodiment, exceptionally short half-life of oxytocin is measured with immunoreactivity on acetone extracted fractions. Observation of disulfide exchange mediated accumulation of oxytocin on high molecular weight proteins in the plasma.

[3] = system: excised and bathed section of mammary gland tissue; conditions: cited from earlier work
[4] = reduced glutathione (1 mM) and oxygen, peptide ~10 nM
[5] = reduced glutathione, reduced cysteine (0.5 mM) and oxygen

Compound	adduct formation by disulfide exchange [1, 4]	adduct formation by disulfide exchange [1, 5]	adsorption to albumin ([2]; pH 7.4)	linear response range for contraction response [3] [ng/mL]	adsorption to albumin ([2]; pH 7.4, room temperature (or 37° C.), with or without glutathione and cysteine)
CC[C@H](C)[C@@H]1NC(=O)[C@H](Cc2ccc(O)cc2)NC(=O)[C@@H](N)CSSC[C@@H](C(=O)N2CCC[C@H]2C(=O)N[C@@H](CC(C)C)C(=O)NCC(N)=O)NC(=O)[C@H](CC(N)=O)NC(=O)[C@H](CCC(N)=O)NC1=O [oxytocin]	form diglutathione adducts	form dicysteine adducts	quantitative adsorption to albumin	1 to 20	
NC(=O)CC[C@@H]1NC(=O)[C@H](Cc2ccccc2)NC(=O)[C@H](Cc2ccc(O)cc2)NC(=O)[C@@H](N)CSSC[C@@H](C(=O)N2CCC[C@H]2C(=O)N[C@@H](CCCN=C(N)N)C(=O)NCC(N)=O)NC(=O)[C@H](CC(N)=O)NC1=O [vasopressin]	form diglutathione adducts	form dicysteine adducts			quantitative adsorption to albumin

Source: patent US20160377635A1, “Measurement of Oxytocin and Vasopressin” (Martin-Protean LLC, priority 2013, published 2016)
